Results published in patent US20090306032A1, “Use of solid lipid nanoparticles Comprising Cholesteryl Propionate and/or Cholesteryl Butyrate” (priority 2005, published 2009).

Legend:
[1] = tested on: adhesion of polymorphonuclear cells to HUVEC cells; assay: Adhesion assay, PMN to HUVEC, PAF stimulus; type: cell-based; conditions: Homo sapiens, 5 min
Experimental: (§1) Human umbilical vein endothelial cells (HUVEC cells) were suitably treated, grown to confluence in 24 well plates, washed and maintained for one day in M199 medium supplemented with 10% BCS (Bovine Calf Serum).
(§2) Polymorphonuclear cells (PMN) were prepared from citrated venous blood obtained from healthy volunteers. Polymorphonuclear cells (PMN), at the concentration of 10^7 cells/ml were labeled with fluorescein diacetate (5 μg/ml) for 30 minutes at 37° C., washed with BSS and plated at the concentration of 10^6 cells per well in a final volume of 0.25 ml of BSS.
(§3) The antiadhesive effects of cholesteryl butyrate nanoparticles prepared in example 1 and of sodium butyrate were measured by an adhesion assay. In detail, human polymorphonuclear cells and HUVEC endothelial cells were incubated with increasing concentrations of cholesteryl butyrate or sodium butyrate nanoparticles in presence of a substance, PAF or IL-1β, which induces adhesion of PMN cells to endothelial HUVEC cells. Adhesion was then assessed by fluorescence microimaging.
a) The effect of cholesteryl butyrate nanoparticles prepared as in example 1, or of sodium butyrate, on adhesion of polymorphonuclear cells to HUVEC cells was examined in presence of the adhesion stimulus provided by PAF (10^−7M). […]

[2] = tested on: adhesion of polymorphonuclear cells to HUVEC cells; assay: Adhesion assay, PMN to HUVEC, IL-1β stimulus; type: cell-based; conditions: Homo sapiens, 4 h, read-out: inhibition of the adhesion
Experimental: as §1, §2, §3
b) The effect of cholesteryl butyrate nanoparticles prepared in example 1 or of sodium butyrate on adhesion of polymorphonuclear cells to HUVEC cells was also examined in presence of the adhesion stimulus provided by IL-1β (0.05 ng/ml). […]

## CCCC(=O)[O-].[Na+] [sodium butyrate]
[1]; read-out: IC50 (inhibition of adhesion)
  IC50: 400 nM
[1]; read-out: inhibition of the adhesion
  inhibition at 10 µM: 74%
[2]
  inhibition at 10 µM: 22%
